# Source: patent US7354940B2, “2,5-dioxoimidazolidin-4-yl acetamines and analogues as inhibitors of metalloproteinase mmp12” (AstraZeneca AB, priority 2002, dated 2008)
# Target: T1, Recombinant human MMP12 catalytic domain (Homo sapiens, UniProt P39900)
# T1 construct: Recombinant human MMP12 catalytic domain; made in house
# Test: Isolated enzyme assay (MMP12 enzyme assay)
# Assay type: biochemical
# Conditions: fluorogenic substrate Mac-Pro-Cha-Gly-Nva-His-Ala-Dpa-NH2, 60 minutes at room temperature, pH 7.3
# Experimental: Recombinant human MMP12 catalytic domain may be expressed and purified as described by Parkar A. A. et al, (2000), Protein Expression and Purification, 20:152. The purified enzyme can be used to monitor inhibitors of activity as follows: MMP12 (50 ng/ml final concentration) is incubated for 60 minutes at room temperature with the synthetic substrate Mac-Pro-Cha-Gly-Nva-His-Ala-Dpa-NH2 in assay buffer (0.1M “Tris-HCl” (trade mark) buffer, pH 7.3 containing 0.1M NaCl, 20 mM CaCl2, 0.020 mM ZnCl and 0.05% (w/v) “Brij 35 ” (trade mark) detergent) in the presence (5 concentrations) or absence of inhibitors. Activity is determined by measuring the fluorescence at λex 320 nm and λem 405 nm. Percent inhibition is calculated as follows: % Inhibition is equal to the [Fluorescenceplus inhibitor−Fluorescencebackground] divided by the [Fluorescenceminus inhibitor−Fluorescenebackground].
# T1 sequence (P39900 106-263 limits assumed): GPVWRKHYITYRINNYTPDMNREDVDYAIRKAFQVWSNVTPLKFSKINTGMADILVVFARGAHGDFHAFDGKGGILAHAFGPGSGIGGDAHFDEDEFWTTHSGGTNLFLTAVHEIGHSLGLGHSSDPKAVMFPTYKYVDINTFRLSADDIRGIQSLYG
row,IC50 [nM],SMILES
1,22,"O=C(CC1NC(=O)NC1=O)NCCc1ccc(-c2ccc(F)cc2)cc1 (stereo not shown) [Example 1, 2-(2,5-Dioxoimidazolidin-4-yl)-N-[2-(4′-fluoro-biphenyl-4-yl)-ethyl]-acetamide]"
2,7,"N#Cc1ccc(-c2ccc(CCNC(=O)CC3NC(=O)NC3=O)cc2)cc1 (stereo not shown) [Example 2, N-[2-(4′-Cyano-biphenyl-4-yl)-ethyl]-2-(2,5-dioxoimidazolidin-4-yl)-acetamide]"
3,32,"O=C(CC1NC(=O)NC1=O)NCCc1ccc(-c2ccccc2)cc1 (stereo not shown) [Example 5, N-(2-Biphenyl-4-yl-ethyl)-2-(2,5-dioxoimidazolidin-4-yl)-acetamide]"
4,15,"Cc1cccc(-c2ccc(CCNC(=O)CC3NC(=O)NC3=O)cc2)c1 (stereo not shown) [Example 22, 2-(2,5-Dioxoimidazolidin-4-yl)-N-[2-(3′-methyl-biphenyl-4-yl)ethyl]-acetamide]"
5,17,"CC(=O)c1ccc(-c2ccc(CCNC(=O)CC3NC(=O)NC3=O)cc2)cc1 (stereo not shown) [Example 26, N-[2-(4′-Acetyl-biphenyl-4-yl)ethyl]-2-(2,5-dioxoimidazolidin-4-yl)-acetamide]"

# More lines, now with the values behind:
row,SMILES,IC50 [nM]
1,"O=C(CC1NC(=O)NC1=O)NCCc1ccc(-c2cccs2)cc1 (stereo not shown) [Example 14, 2-(2,5-Dioxoimidazolidin-4-yl)-N-[2-(4-thiophen-2-yl-phenyl)ethyl]-acetamide]",6
2,"O=C(CC1NC(=O)NC1=O)NCCc1ccc(-c2cc(Cl)cc(Cl)c2)cc1 (stereo not shown) [Example 21, N-[2-(3′,5′-Dichloro-biphenyl-4-yl)ethyl]-2-(2,5-dioxoimidazolidin-4-yl)-acetamide]",8
3,"O=C(CC1NC(=O)NC1=O)NCCc1ccc(-c2cc3ccccc3o2)cc1 (stereo not shown) [Example 23, N-[2-(4-Benzofuran-2-yl-phenyl)ethyl]-2-(2,5dioxoimidazolidin-4-yl)-acetamide]",6
4,"COc1cccc(-c2ccc(CCNC(=O)CC3NC(=O)NC3=O)cc2)c1 (stereo not shown) [Example 24, 2-(2,5-Dioxoimidazolidin-4-yl)-N-[2-(3′-methoxy-biphenyl-4-yl)ethyl]-acetamide]",4
5,"O=C(CC1NC(=O)NC1=O)NCCc1ccc(-c2cc3ccccc3s2)cc1 (stereo not shown) [Example 27, N-[2-(4-Benzo[b]thiophen-2-yl-phenyl)ethyl]-2-(2,5-dioxoimidazolidin-4-yl)-acetamide]",5
